In patent EP1136472A1, “ARYL- AND HETEROARYLAMIDES OF CARBOALKOXYSULFANILIC ACIDS” (priority 1998, dated 2000):
Values after ≈ are worked out from the molar mass of the structure shown.

Key:
[1] = tested on: Human's platelet aggregation; assay: Antiaggregational properties, ADP-induced platelet aggregation in platelet-rich plasma; type: cell-based; conditions: adenosine diphosphate 2.5 µmol/l
Method: Human's platelet aggregation was investigated in plasma of healthy 50±3 years donors that was enriched by thrombocytes, by means of aggregometer FRM-1. The substance under investigation was added to blood plasma samples (100 µg/ml) before inducing aggregation by means of adenosine diphosphate (2.5 µmol/l). Magnitude of the maximum non-reversible platelet aggregation in the control samples (solvent) was adopted as 100%, and that in tested samples was counted as percentage compared to the control. Inhibition of the aggregation by more than 50% at the given concentration was evaluated as meaningful inhibition. Adenosine (5 µg/ml) and aspirin (9 µg/ml), that inhibit aggregation at these concentrations by 100%, were utilized as reference agents.

[2] = tested on: Herpes Simplex virus of the type I (HSV-I /Leningrad/248/88); assay: Antiviral effect on Herpes Simplex virus (cytopathogenic action on Vero cells); type: cell-based; conditions: compound concentration of 100 µg/ml; for Quantity of the unchanged cells: number of cells in 100 visual fields, after 36 hours; for percentage of protection: protection of cells from virus as compared to the control of cell culture
[3] = type: in vivo; conditions: mice, observed 72 hours, 300 was the maximally utilized
Method: Tested substance was introduced perorally (in dose of 300 mg/kg) through a gastric tube or intraperitoneally (in dose of 100 mg/kg) to no-breed white mice with mass 18-20 g (each tested group consisted of 3 males and 3 females). Then the mouse state was observed during 72 hours. Absence of symptoms characteristic of toxic effects, or absence of animal death during the given time allows to make a conclusion that the toxicity of the tested substance is low.

[4] = tested on: alanine-aminotranspherase (AlAT); assay: Hepatoprotective activity, CCl4 liver damage in rats; type: in vivo
Method: CCl4 dissolved in 50% olive oil (1 ml/kg) was subcutaneously administrated to rats. Test substances were administrated perorally in a dose of 20 mg/kg 30 minutes before and 7 hours after the CCL4 administration. The activity of alanine-aminotranspherase (AlAT), which is a marker enzyme of liver parenchyma damage, was assessed twenty-four hours later. Reducing of enzyme amount by more than 30% relative to the control group was considered as evidence of hepatoprotective properties of the substance. Vitamin E in a dose of 100 mg/kg was used as a reference agent.

[5] = tested on: Mycobacterium tuberculosis H37RV; assay: Antimicrobial action, serial dilution method; type: cell-based; conditions: Mycobacterium tuberculosis, H37RV; 72-hour cultivation at 37°C; read-out: MIC
C.trachomatis D323 = assay: Antichlamydial activity in infected cell culture (McCoy and L929); type: cell-based, Chlamydia trachomatis; conditions: 100 mg/l
Method: The antichlamydial activity of the claimed compounds was studied in respect to C.trachomatis […], which is a standard strain contained in the collection of the department of microbiology of St. Petersburg State Pavlov Medical University. […] Cell cultures McCoy and L929 obtained from the Institute of Cytology of RAS were used in this work. Cells were grown in flasks made of neutral glass in the medium RPMI-1640 containing 10% of fetal calf serum. The test was performed in flat-bottom flasks made of glass (non-toxic), that were supplied with cover glasses. The cells were introduced into the medium in the final concentration of 1x10^6 cell/ml. […] Simultaneously, tested compounds in a final concentration of 100 mg/l were added to the cells. The sample was centrifuged at 2400 G for 60 minutes at a room temperature and incubated at 37°C for 2 hours. […] The samples were doubled using the medium without cycloheximide so as to exclude its effect on the investigated compounds. The samples were incubated for 48 hours in CO2-incubator. The controls included: • 1. Control of cell culture • 2. Control of action of solvents • 3. Control of action of chlamydia in absence of any compounds • 4. […] Control of the tested compounds as to toxicity in respect to the cell culture. Evaluation of the results was carried out by the way of determination of chlamydial cytoplasmatic inclusions (CPI) that was conducted by the method of immunofluorescence (MicroTrack Chlamydia trachomatis Direct Specimen Test), and by the way of determination of chlamydia antigens that was conducted by means of CylaMonoScreen (Russian-British Joint Venture 66 Regent's Parc Road London NW1 7SX). The effect of the action of compound was determined by analysis of the monolayer state and number of cells with CPI when compared with the control (cell culture infected with C.trachomatis […]); in doing so, the number of unchanged cells, that were counted in 100 visual fields obtained using the eyepiece-micrometer, was taken into consideration.

CC(=O)Oc1ccccc1C(=O)O [Aspirin, aspirin]
inhibition at 9 µg/mL ([1]; Homo sapiens, Platelet, 9 µg/ml): 100%

CCCCOC(=O)Nc1ccc(S(=O)(=O)Nc2ccc([N+](=O)[O-])cc2)cc1 [VII, Carbobutoxysulfanylic acid (4-nitrophenyl)amide]
Quantity of the unchanged cells [2]: 8000
percentage of protection [2]: 80%
Maximal tolerable dose: Concentration of tested compounds at oral introducing [3]: 300 mg/L

Vitamin E [reference compound]
% of reducing AlAT ([4]; Vitamin E in a dose of 100 mg/kg, reference agent): -30%

NNC(=O)c1ccncc1 [Isoniazid]
MIC [5]: 0.1 µg/mL (≈ 0.729 µM)

CCCCCCOC(=O)Nc1ccc(S(=O)(=O)Nc2ccccc2C)cc1 [XXIX, Carbohexoxysulfanylic acid (2-toluyl)amide]
Quantity of the unchanged cells [2]: 6000
percentage of protection [2]: 60%
activity against chlamydia (in words) (C.trachomatis D323): marked biological activity against chlamydia
percentage of cell protection from infection (C.trachomatis D323; 48 hours): 55%
Number of unchanged cells (C.trachomatis D323; counted in 100 visual fields, 48 hours): 4.400
% of reducing AlAT ([4]; perorally 20 mg/kg 30 minutes before and 7 hours after CCl4, AlAT twenty-four hours later, relative to the control group): -36%
% of inhibition ([1]; 100 µg/ml): 33.3±8.2%

Nc1ncnc2c1ncn2[C@@H]1O[C@H](CO)[C@@H](O)[C@H]1O [Adenosine]
inhibition at 5 µg/mL ([1]; Homo sapiens, Platelet, 5 µg/ml): 100%
